Data on eleven compounds can be found in ChEMBL document CHEMBL4257529, “Antifungal amphiphilic kanamycins: new life for an old drug” (Medchemcomm, 2018).

Holding throughout (assay type): functional
The test system of experiment [1] is Fusarium graminearum. Kind of experiment: Antifungal activity against Fusarium graminearum by microbroth dilution assay.
Experiment [2] has as its system Aspergillus flavus. Description: Antifungal activity against Aspergillus flavus after 12 to 18 hrs.
For experiment [3], the system named is Fusarium graminearum. Kind of experiment: Antifungal activity against Fusarium graminearum after 12 to 18 hrs.
In experiment [4] the test system is Escherichia coli. Description: Antibacterial activity against Escherichia coli ATCC 25922 after 12 to 18 hrs.
The subject of experiment [5] is Staphylococcus aureus. Kind of experiment: Antibacterial activity against Staphylococcus aureus ATCC 25923 after 12 to 18 hrs.
The test system of experiment [6] is Escherichia coli. Description: Antibacterial activity against Escherichia coli TG1 by microbroth dilution assay.
Experiment [7] deals with Staphylococcus aureus. Description: Antibacterial activity against Staphylococcus aureus ATCC 25923 by microbroth dilution assay. (Broth dilution looks for growth in wells or tubes with falling amounts of substance.)
In experiment [8] the test system is Pseudomonas aeruginosa. Description: Antibacterial activity against Pseudomonas aeruginosa ATCC 27853 by microbroth dilution assay.
Experiment [9] has as its system Enterococcus faecalis. Kind of experiment: Antibacterial activity against Enterococcus faecalis ATCC 29212 by microbroth dilution assay.
The subject of experiment [10] is Klebsiella pneumoniae. Description: Antibacterial activity against Klebsiella pneumoniae […] by microbroth dilution assay.
Experiment [11] deals with Klebsiella pneumoniae. Description: Antibacterial activity against Klebsiella pneumoniae ATCC 700603 by microbroth dilution assay.
The test system of experiment [12] is Rhodotorula mucilaginosa. Description: Antifungal activity against Rhodotorula pilimanae by microbroth dilution assay.
The subject of experiment [13] is Candida albicans. Kind of experiment: Antifungal activity against Candida albicans by microbroth dilution assay.
Experiment [14] concerns Saccharomyces cerevisiae. Description: Antifungal activity against Saccharomyces cerevisiae W303 by microbroth dilution assay.
Experiment [15] has as its system Fusarium oxysporum. Description: Antifungal activity against Fusarium oxysporum by microbroth dilution assay.
Experiment [16] relates to Cryptococcus neoformans. Description: Antifungal activity against Cryptococcus neoformans 90-26.
The subject of experiment [17] is Cryptococcus neoformans. Kind of experiment: Antifungal activity against Cryptococcus neoformans H99. As to conditions: var grubii H99.
Experiment [18] concerns Cryptococcus neoformans. Kind of experiment: Antifungal activity against Cryptococcus neoformans 94-2586.
Experiment [19] concerns Clavispora lusitaniae. Description: Antifungal activity against Candida lusitaniae 95-767.
Experiment [20] relates to Diutina rugosa. Kind of experiment: Antifungal activity against Candida rugosa 95-967.
Experiment [21] relates to Candida tropicalis. Description: Antifungal activity against Candida tropicalis 95-41.
Experiment [22] concerns Candida albicans. Description: Antifungal activity against Candida albicans ATCC 10231.
The subject of experiment [23] is Candida albicans. Description: Antifungal activity against resistant Candida albicans ATCC 64124.
Experiment [24] deals with Candida albicans. Description: Antifungal activity against sensitive Candida albicans MYA-2876.
Experiment [25] has as its system Candida albicans. Kind of experiment: Antifungal activity against Candida albicans B-311.
Experiment [26] has as its system Candida albicans. Description: Antifungal activity against Candida albicans 94-2181.
In experiment [27] the test system is Candida parapsilosis. Description: Antifungal activity against resistant Candida parapsilosis. As to conditions: Lodderomyces parapsilosis.
The subject of experiment [28] is Candida parapsilosis. Description: Antifungal activity against sensitive Candida parapsilosis. As to conditions: Lodderomyces parapsilosis.
Experiment [29] relates to Fusarium graminearum. Kind of experiment: Antifungal activity against Fusarium graminearum B4-5A strain A after 48 hrs by microdilution assay.
Experiment [30] deals with Fusarium graminearum. Description: Antifungal activity against Fusarium graminearum B4-5A strain B after 48 hrs by microdilution assay.
Experiment [31] has as its system Fusarium graminearum. Description: Antifungal activity against Fusarium graminearum B4-5A strain C after 48 hrs by microdilution assay.
Experiment [32] concerns Fusarium graminearum. Description: Antifungal activity against Fusarium graminearum B4-5A strain D after 48 hrs by microdilution assay.
Experiment [33] has as its system Fusarium graminearum. Description: Antifungal activity against Fusarium graminearum B4-5A strain E after 48 hrs by microdilution assay.
Experiment [34] has as its system Kluyveromyces marxianus. Kind of experiment: Antifungal activity against Candida pseudotropicalis YOGI.
Experiment [35] has as its system Aspergillus flavus. Description: Antifungal activity against Aspergillus flavus.
For experiment [36], the system named is Escherichia coli. Description: Antibacterial activity against Escherichia coli TG1.
Experiment [37] concerns Staphylococcus aureus. Kind of experiment: Antibacterial activity against Staphylococcus aureus ATCC 25923.
The test system of experiment [38] is Micrococcus luteus. Kind of experiment: Antibacterial activity against Micrococcus luteus ATCC 10240.
The subject of experiment [39] is Fusarium graminearum. Description: Antifungal activity against Fusarium graminearum B-4-5A.
The test system of experiment [40] is Fusarium oxysporum. Description: Antifungal activity against Fusarium oxysporum.
The test system of experiment [41] is Aspergillus niger. Description: Antifungal activity against Aspergillus niger.
Experiment [42] concerns Fusarium graminearum. Kind of experiment: Antifungal activity against Fusarium graminearum infected in wheat plant assessed as contamination of wheat heads and kernels with deoxynivalenol at 2.8 ml/L (reference value: 1.2 ppm).
Experiment [43] relates to Fusarium graminearum. Kind of experiment: Antifungal activity against Fusarium graminearum infected in wheat plant assessed as contamination of wheat heads and kernels with deoxynivalenol at 5.5 ml/L (reference value: 1.2 ppm).

Converted amounts (≈) assume the structure as drawn.

For orientation: MIC means the smallest concentration in the dilution series that meets the test's criterion for growth inhibition.

Compound `CCCCCCCCO[C@@H]1[C@@H](N)[C@@H](O[C@H]2[C@H](O)[C@@H](O[C@H]3O[C@H](CO)[C@@H](O)[C@H](O)[C@H]3O)[C@H](N)C[C@@H]2N)O[C@H](CN)[C@H]1O` returned an MIC in [1] above 500 µg/mL.
As for `CCCCCCCCCOC[C@H]1O[C@H](O[C@@H]2[C@@H](O)[C@H](O[C@H]3O[C@H](CN)[C@@H](O)[C@H](O)[C@H]3O)[C@@H](N)C[C@H]2N)[C@H](O)[C@@H](N)[C@@H]1OCCCCCCCCC`, the MIC in experiment [2] is 500 µg/mL (≈ 678 µM); in [3], 125 µg/mL (≈ 170 µM); in [4], 16 µg/mL (≈ 21.7 µM); in experiment [5], 8 µg/mL (≈ 10.9 µM).
The like results for `CCCCCCCO[C@H]1[C@H](N)[C@@H](O)[C@@H](O[C@@H]2[C@@H](O)[C@H](O[C@H]3O[C@H](CN)[C@@H](O)[C@H](O)[C@H]3O)[C@@H](N)C[C@H]2N)O[C@@H]1CO` were, in that order, above 500 µg/mL, 125 µg/mL (≈ 215 µM), at least 250 µg/mL and 125 µg/mL (≈ 215 µM).
With `CCCCCCCCO[C@@H]1[C@@H](O)[C@H](O)[C@H](O[C@H]2[C@H](O)[C@@H](O[C@@H]3O[C@@H](CN)[C@H](O)[C@@H](O)[C@@H]3N)[C@H](N)C[C@@H]2N)O[C@H]1CO` (single isomer, unassigned), in experiment [1], the MIC amounted to 7.8 µg/mL (≈ 13.1 µM).
In turn, `CCCCCCOC[C@@H]1O[C@@H](O[C@@H]2[C@@H](O)[C@H](O[C@@H]3O[C@@H](CN)[C@H](O)[C@@H](O)[C@@H]3N)[C@@H](N)C[C@H]2N)[C@@H](O)[C@H](O)[C@H]1O` (stereo in doubt) displayed an MIC in [1] of 125 µg/mL (≈ 220 µM).
`CCCCCCCCOC[C@@H]1O[C@@H](O[C@@H]2[C@@H](O)[C@H](O[C@@H]3O[C@@H](CN)[C@H](O)[C@@H](O)[C@@H]3N)[C@@H](N)C[C@H]2N)[C@@H](O)[C@H](O)[C@H]1O` (stereo in doubt) came in with an MIC in experiment [1] of 31.3 µg/mL (≈ 52.5 µM).
As to `NC[C@H]1O[C@H](O[C@H]2[C@H](O)[C@@H](O[C@H]3O[C@H](CO)[C@@H](O)[C@H](N)[C@H]3O)[C@H](N)C[C@@H]2N)[C@H](N)[C@@H](O)[C@@H]1O` [BEKANAMYCIN], the MIC in experiment [6] was 1.95 µg/mL (≈ 4.03 µM); in [7], below 0.98 µg/mL; in experiment [8], 1.95 µg/mL (≈ 4.03 µM); in experiment [9], below 0.98 µg/mL; in experiment [10], 1.95 µg/mL (≈ 4.03 µM); in [11], 1.95 µg/mL (≈ 4.03 µM). For the same compound, the minimal inhibitory concentration (MIC) in experiment [12], in experiment [13], in experiment [14], in experiment [1] and in experiment [15] was above 250 µg/mL throughout.
As for `OC(Cn1cncn1)(Cn1cncn1)c1ccc(F)cc1F` [FLUCONAZOLE], the MIC was above 0.195 µg/mL in [16]; 1.56 µg/mL (≈ 5.09 µM) in experiment [17]; 1.56 µg/mL (≈ 5.09 µM) in experiment [18]; 1.56 µg/mL (≈ 5.09 µM) in [19]; above 0.78 µg/mL in [20]; above 25 µg/mL in experiment [21]. Besides, the MIC in experiment [22] was 25 µg/mL (≈ 81.6 µM); in [23] it was above 200 µg/mL; in experiment [24], 1.56 µg/mL (≈ 5.09 µM); in experiment [25], above 25 µg/mL; in experiment [26], above 12.5 µg/mL; in [27], above 16 µg/mL. Besides, the MIC in [28] was 0.12 µg/mL (≈ 0.392 µM); in experiment [29], above 200 µg/mL; in experiment [30] it was above 25 µg/mL; in experiment [31] it was above 2 µg/mL; in [32] it was above 12.5 µg/mL; in experiment [33] it was above 25 µg/mL.
With `CCC(C)n1ncn(-c2ccc(N3CCN(c4ccc(OCC5COC(Cn6cncn6)(c6ccc(Cl)cc6Cl)O5)cc4)CC3)cc2)c1=O` (stereo not drawn) [ITRACONAZOLE], the MIC is 0.37 µg/mL (≈ 0.524 µM) in experiment [16]; 1.56 µg/mL (≈ 2.21 µM) in experiment [17]; 0.06 µg/mL (≈ 0.085 µM) in experiment [18]; 0.125 to 0.8 µg/mL (≈ 0.177 to 1.13 µM) in experiment [34]; 0.2 µg/mL (≈ 0.283 µM) in experiment [19]; 0.12 µg/mL (≈ 0.17 µM) in experiment [20]. For the same compound, the MIC in [21] was above 25 µg/mL; in experiment [22] it was 0.75 µg/mL (≈ 1.06 µM); in experiment [23] it was above 64 µg/mL; in experiment [24], above 2 µg/mL; in experiment [25], 16 to 32 µg/mL (≈ 22.7 to 45.3 µM); in experiment [26] it was 8 to 16 µg/mL (≈ 11.3 to 22.7 µM). For the same compound, the MIC was 0.5 µg/mL (≈ 0.709 µM) in experiment [27], 0.015 µg/mL (≈ 0.0213 µM) in experiment [28] and 0.125 µg/mL (≈ 0.177 µM) in experiment [35].
With `NC[C@H]1O[C@H](O[C@H]2[C@H](O)[C@@H](O[C@H]3O[C@H](CO)[C@@H](O)[C@H](N)[C@H]3O)[C@H](N)C[C@@H]2N)[C@H](O)[C@@H](O)[C@@H]1O` [KANAMYCIN], the MIC was above 250 µg/mL in experiment [16]; 1.95 µg/mL (≈ 4.02 µM) in experiment [36]; below 0.98 µg/mL in experiment [37]; 1.95 µg/mL (≈ 4.02 µM) in experiment [38]; above 125 µg/mL in experiment [17]; above 125 µg/mL in experiment [18]. The MIC in [34] is above 250 µg/mL; in experiment [19] it was above 250 µg/mL; in experiment [20], above 250 µg/mL; in experiment [21] it was above 250 µg/mL; in [22], above 250 µg/mL; in experiment [23] it was above 500 µg/mL. The MIC in experiment [24] was above 250 µg/mL; in experiment [25], above 250 µg/mL; in [26], above 250 µg/mL; in [28], above 250 µg/mL; in [39], above 125 µg/mL; in [40] it was above 250 µg/mL. Also, the MIC in experiment [35] and in experiment [41] was above 250 µg/mL in each case.
`OC(Cc1ccccc1Cl)(Cn1nc[nH]c1=S)C1(Cl)CC1` (stereo not drawn) [PROTHIOCONAZOLE]: the Activity was 1.1 ppm in [42] and 0.7 ppm in [43].
